Structures can show the parent of a compound that is named as a salt.
Each compound was assayed against T1, catalytic domain of human MMP-13 (Homo sapiens, UniProt P45452) (assay: Inhibition of proteolysis of a thioester peptide substrate by MMP-13). Details: not given.
T1 construct: the catalytic domain of human MMP-13
Type: biochemical
Description: Evaluation of the in vitro activity of the MMP-13 inhibitor compounds according to the invention.
The inhibitory activity of the compounds of formula (I) according to the invention with respect to matrix metalloprotease-13 is evaluated by testing the ability of the compounds of the invention to inhibit the proteolysis of a peptide substrate with MMP-13.
The peptide substrate used in the test is the following peptide: Ac-Pro-Leu-Gly-thioester-Leu-Leu-Gly-OEt.
To carry out this test, a reaction medium of 100 μl volume is prepared, containing: 50 mM of HEPES buffer, 10 mM of CaCl2 and 1 mM of 5,5′-dithiobis-(2-nitrobenzoic acid) (DTNB), and 100 μM of substrate, the pH being adjusted to 7.0.
The concentrations of inhibitors present in the test samples range from 100 μM to 0.5 nM.
The IC50 values are calculated from a curve in which the percentage of the catalytic activity relative to the control is represented on the X-axis and the concentration of inhibitor is represented on the Y-axis.
For `O=c1c2cc(C#CCc3ccccc3)ccc2ncn1Cc1ccc(F)cc1` [Example 8, 3-(4-fluorobenzyl)-6-(3-phenyl-pro-1-ynyl)-3 H-quinazolin-4-one], the IC50 was under 1000 nM. Work on `COC(=O)c1ccc(Cn2cnc3ccc(C#CCc4ccccc4)cc3c2=O)cc1` [Example 9, Methyl 4-[4-Oxo-6-(3-phenyl-prop-1-ynyl)-4H-quinazolin-3-ylmethyl]-benzoate] yielded an IC50 of under 1000 nM. `NS(=O)(=O)c1ccc(Cn2cnc3ccc(C#CCc4ccccc4)cc3c2=O)cc1` [Example 59, 4-[4-Oxo-6-(3-phenyl-prop-1-ynyl)-4H-quinazolin-3-ylmethyl]-benzenesulfonamide] was tested, and the IC50 was under 1000 nM. `N#Cc1ccc(Cn2cnc3ccc(C#CCc4ccccc4)cc3c2=O)cc1` [Example 60, 4-[4-Oxo-6-(3-phenyl-prop-1-ynyl)-4H-quinazolin-3-ylmethyl]-benzonitrile] showed an IC50 of under 1000 nM. With `O=c1c2cc(C#CCc3ccccc3)ccc2ncn1Cc1cccc(Cl)c1` [Example 62, 3-(3-Chloro-benzyl)-6-(3-phenyl-prop-1-ynyl)-3H-quinazolin-4-one] the IC50 was under 1000 nM. In the case of `O=C(O)c1ccc(Cn2cnc3ccc(C#CCN4CCOCC4)cc3c2=O)cc1` [Example 106, 4-[6-(3-Morpholin-4-yl-prop-1-ynyl)-4-oxo-4H-quinazolin-3-ylmethyl]-benzoic acid trifluoroacetic acid salt], the IC50 is reported as at least 65000 nM. Compound `O=C(O)c1ccc(Cn2cnc3ccc(C#CCN4CCCCC4)cc3c2=O)cc1` [Example 107, 4-[4-Oxo-6-(3-piperidin-1-yl-prop-1-ynyl)-4H-quinazolin-3-ylmethyl]-benzoic acid trifluoroacetic acid salt] has an IC50 of at least 65000 nM.

Same assay, conditions: substrate Ac-Pro-Leu-Gly-thioester-Leu-Leu-Gly-OEt 100 μM, pH 7.0, 2.5 nM enzyme; read-out: IC50 values on MMP-13
With `COc1ccc(CNC(=O)c2ccc3ncn(Cc4ccc(OC)cc4)c(=O)c3c2)cc1` [Example 1, 3-(4-Methoxy-benzyl)-4-oxo-3,4-dihydro-quinazoline-6-carboxylic acid 4-methoxy-benzylamide] the IC50 was under 1000 nM. `COc1ccc(CNC(=O)c2ccc3nc(C)n(Cc4ccc(OC)cc4)c(=O)c3c2)cc1` [Example 2, 3-(4-Methoxy-benzyl)-2-methyl-4-oxo-3,4-dihydro-quinazoline-6-carboxylic acid 4-methoxy-benzylamide, hydrochloride] gave an IC50 of under 1000 nM. With `COc1ccc(CNC(=O)c2ccc3c(c2)C(=O)N(Cc2ccc(OC)cc2)CN3C)cc1` [Example 3, 3-(4-Methoxy-benzyl)-1-methyl-4-oxo-1,2,3,4-tetrahydro-quinazoline-6-carboxylic acid 4-methoxy-benzylamide] the IC50 was under 1000 nM. Work on `COc1ccc(CNC(=O)c2ccc3c(c2)C(=O)N(Cc2ccc(OC)cc2)C(C)(C)N3C)cc1` [Example 4, 3-(4-Methoxy-benzyl)-1,2,2-trimethyl-4-oxo-1,2,3,4-tetrahydro-quinazoline-6-carboxylic acid 4-methoxy-benzylamide] yielded an IC50 of under 1000 nM. Work on `COc1ccc(CNC(=O)c2ccc3c(c2)C(=O)N(Cc2ccc(C(=O)O)cc2)CN3)cc1` [Example 5, 4-[6-(4-Methoxy-benzylcarbamoyl)-4-oxo-1,4-dihydro-2H-quinazolin-3-ylmethyl]-benzoic acid] yielded an IC50 of under 1000 nM. With `COC(=O)c1ccc(CN2CN(C)c3ccc(C(=O)NCc4ccc(OC)cc4)cc3C2=O)cc1` [Example 6, Methyl 4-[6-(4-Methoxy-benzylcarbamoyl)-1-methyl-4-oxo-1,4-dihydro-2H-quinazolin-3-ylmethyl]-benzoate] the IC50 was under 1000 nM. `COc1ccc(CNC(=O)c2ccc3c(c2)C(=O)N(Cc2ccc(C(=O)O)cc2)CN3C)cc1` [Example 7, 4-[6-(4-Methoxy-benzylcarbamoyl)-1-methyl-4-oxo-1,4-dihydro-2H-quinazolin-3-ylmethyl]-benzoic acid] showed an IC50 of under 1000 nM. Compound `COc1cccc(CNC(=O)c2ccc3ncn(Cc4ccc(F)cc4)c(=O)c3c2)c1` [Example 14, 3-(4-Fluoro-benzyl)-4-oxo-3,4-dihydro-quinazoline-6-carboxylic acid 3-methoxy-benzylamide] has an IC50 of under 1000 nM. Work on `COc1ccc(CNC(=O)c2ccc3ncn(Cc4ccc(S(C)(=O)=O)cc4)c(=O)c3c2)cc1` [Example 15] yielded an IC50 of under 1000 nM. `COc1ccc(CNC(=O)c2ccc3ncn(Cc4ccc(S(=O)(=O)N5CCCC5)cc4)c(=O)c3c2)cc1` [Example 16, 4-Oxo-3-[4-(pyrrolidine-1-sulfonyl)-benzyl]-3,4-dihydro-quinazoline-6-carboxylic acid 4-methoxy-benzylamide] was tested, and the IC50 was under 1000 nM. `COc1cccc(CNC(=O)c2ccc3ncn(Cc4ccc(C(=O)O)cc4)c(=O)c3c2)c1` [Example 17, 4-[6-(3-Methoxy-benzylcarbamoyl)-4-oxo-4H-quinazolin-3-ylmethyl]-benzoic acid] was tested, and the IC50 was under 1000 nM. `COc1cc(CNC(=O)c2ccc3ncn(Cc4ccc(F)cc4)c(=O)c3c2)ccn1` [Example 21, 3-(4-Fluoro-benzyl)-4-oxo-3,4-dihydro-quinazoline-6-carboxylic acid (2-methoxy-pyridin-4-ylmethyl)-amide] was tested, and the IC50 was under 1000 nM. For `COc1cccc(CNC(=O)c2cc3c(=O)n(Cc4cccc(F)c4)cnc3cn2)c1` [Example 23, 3-(3-Fluoro-benzyl)-4-oxo-3,4-dihydro-pyrido[3,4-d]pyrimidine-6-carboxylic acid 3-methoxy-benzylamide], the IC50 was under 1000 nM. For `COc1ccc(CNC(=O)c2cc3c(=O)n(Cc4cccc(F)c4)cnc3cn2)cc1` [Example 24, 3-(3-Fluoro-benzyl)-4-oxo-3,4-dihydro-pyrido[3,4-d]pyrimidine-6-carboxylic acid 4-methoxy-benzylamide], the IC50 was under 1000 nM. For `O=c1c2cc(C#CCOc3ccncc3)ccc2ncn1Cc1ccc(F)c(F)c1` [Example 65, 3-(3,4-Difluoro-benzyl)-6-[3-(pyridin-4-yloxy)-prop-1-ynyl]-3H-quinazolin-4-one], the IC50 was under 1000 nM. `COc1ccc(CC#Cc2ccc3ncn(Cc4ccc(F)c(F)c4)c(=O)c3c2)cc1` [Example 66, 3-(3,4-Difluoro-benzyl)-6-[3-(4-methoxy-phenyl)-prop-1-ynyl]-3H-quinazolin-4-one] gave an IC50 of under 1000 nM. `CC(=O)Nc1ccc(Cn2cnc3ccc(C#CCc4ccccc4)cc3c2=O)cc1` [Example 67, N-{4-[4-Oxo-6-(3-phenyl-prop-1-ynyl)-4H-quinazolin-3-ylmethyl]-phenyl}-acetamide] gave an IC50 of under 1000 nM. In the case of `O=c1c2cc(C#CCc3ccccc3)ccc2ncn1Cc1ccc(F)c(F)c1` [Example 68, 3-(3,4-Difluoro-benzyl)-6-(3-phenyl-prop-1-ynyl)-3H-quinazolin-4-one], the IC50 is reported as under 1000 nM. Compound `COc1ccc(CC#Cc2ccc3ncn(Cc4ccc(C(C)=O)cc4)c(=O)c3c2)cc1` [Example 69, 3-(4-Acetyl-benzyl)-6-[3-(4-methoxy-phenyl)-prop-1-ynyl]-3H-quinazolin-4-one] has an IC50 of under 1000 nM. `O=c1c2cc(C#CCc3ccccc3)ccc2ncn1Cc1ccncc1` [Example 70, 6-(3-Phenyl-prop-1-ynyl)-3-pyridin-4-ylmethyl-3H-quinazolin-4-one] was tested, and the IC50 was under 1000 nM. With `COc1ccc(CC#Cc2ccc3ncn(Cc4ccncc4)c(=O)c3c2)cc1` [Example 71, 6-[3-(4-Methoxy-phenyl)-prop-1-ynyl]-3-pyridin-4-ylmethyl-3H-quinazolin-4-one] the IC50 was under 1000 nM. For `COc1cc(CNC(=O)c2ccc3ncn(Cc4ccc(F)c(F)c4)c(=O)c3c2)ccn1` [Example 104, 3-(3,4-Difluoro-benzyl)-4-oxo-3,4-dihydro-quinazoline-6-carboxylic acid (2-methoxy-pyridin-4-ylmethyl)-amide], the IC50 was under 1000 nM. Compound `COc1ccc(CNC(=O)c2ccc3ncn(Cc4ccc(F)c(F)c4)c(=O)c3c2)cc1` [Example 105, 3-(3,4-Difluoro-benzyl)-4-oxo-3,4-dihydro-quinazoline-6-carboxylic acid 4-methoxy-benzylamide] has an IC50 of under 1000 nM. With `CN1CCN(CC#Cc2ccc3ncn(Cc4ccc(C(=O)O)cc4)c(=O)c3c2)CC1` [Example 108, 4-{6-[3-(4-Methyl-piperazin-1-yl)-prop-1-ynyl]-4-oxo-4H-quinazolin-3-ylmethyl}-benzoic acid trifluoroacetic acid salt] the IC50 was at least 65000 nM. `O=C(O)c1ccc(Cn2cnc3ccc(C#CCN4Cc5ccccc5C4)cc3c2=O)cc1` [Example 109, 4-{6-[3-(1,3-Dihydro-isoindol-2-yl)-prop-1-ynyl]-4-oxo-4H-quinazolin-3-ylmethyl}-benzoic acid trifluoroacetic acid] gave an IC50 of under 1000 nM.

— patent US6747147B2, “Oxo-azabicyclic compounds” (Warner-Lambert Company, priority 2002, dated 2004)
